Experiments:
[1] = target: T1, Gastrin/cholecystokinin type B receptor (Mus musculus, UniProt P56481); assay: Binding affinity towards CCK-B receptor in mouse cerebral cortex membrane using [125I]bolton assay; assay type: cell membranes
T1 sequence (P56481 whole entry): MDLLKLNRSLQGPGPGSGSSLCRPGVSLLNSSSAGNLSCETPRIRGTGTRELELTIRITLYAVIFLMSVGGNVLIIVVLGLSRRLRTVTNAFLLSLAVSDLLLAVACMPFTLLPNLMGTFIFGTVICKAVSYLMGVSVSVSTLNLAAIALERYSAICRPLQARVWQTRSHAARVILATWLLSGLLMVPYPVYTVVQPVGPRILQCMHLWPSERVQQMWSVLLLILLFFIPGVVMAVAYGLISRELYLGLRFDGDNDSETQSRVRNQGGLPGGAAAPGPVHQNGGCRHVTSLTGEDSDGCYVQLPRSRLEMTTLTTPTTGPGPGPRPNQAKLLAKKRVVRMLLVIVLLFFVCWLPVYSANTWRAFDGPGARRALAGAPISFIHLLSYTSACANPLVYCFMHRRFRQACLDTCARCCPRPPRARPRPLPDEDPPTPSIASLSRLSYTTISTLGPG

[2] = target: T2, Cholecystokinin receptor type A (Rattus norvegicus, UniProt P30551); assay: Binding affinity towards CCK-A receptor in rat pancreas membrane using Hunter labelled CCK-8S assay; assay type: cell membranes
T2 sequence (P30551 whole entry): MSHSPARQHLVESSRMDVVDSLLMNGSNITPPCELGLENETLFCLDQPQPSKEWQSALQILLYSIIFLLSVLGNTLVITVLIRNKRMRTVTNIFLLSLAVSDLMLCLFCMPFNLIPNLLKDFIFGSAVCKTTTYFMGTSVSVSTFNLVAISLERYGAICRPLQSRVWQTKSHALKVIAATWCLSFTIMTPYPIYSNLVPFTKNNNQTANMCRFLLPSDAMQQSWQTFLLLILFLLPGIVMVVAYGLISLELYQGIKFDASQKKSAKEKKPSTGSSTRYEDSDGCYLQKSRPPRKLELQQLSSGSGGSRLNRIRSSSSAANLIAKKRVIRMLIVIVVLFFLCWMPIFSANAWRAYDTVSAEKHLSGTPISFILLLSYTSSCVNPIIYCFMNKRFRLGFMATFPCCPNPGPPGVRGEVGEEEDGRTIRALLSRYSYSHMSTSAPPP

C[C@](Cc1c[nH]c2ccccc12)(NC(=O)OC1C2CC3CC(C2)CC1C3)C(=O)N[C@@H](CC(=O)O)Cc1ccc(N)c(I)c1 (some centres undefined)
Ki [1]: 0.52 nM
Ki [2]: 158 nM

C[C@](Cc1c[nH]c2ccccc12)(NC(=O)OC1C2CC3CC(C2)CC1C3)C(=O)N[C@@H](CC(=O)O)Cc1ccc(N=[N+]=[N-])c(I)c1 (some centres undefined)
Ki [1]: 0.88 nM
Ki [2]: 392 nM

From ChEMBL document CHEMBL1128058, “Synthesis of novel iodinated radioligands with high affinity and selectivity for CCK-B/gastrin receptors” (Bioorg Med Chem Lett, 1995)
